“And” between values parts separate entries of the source, which are not always exact repeats. Equal entries are not always repeated.
Experiments:
rice [1] = assay: Hothouse test on rice in flooded culture, 66 days (Example 9b); type: in vivo, rice cv. RIBE
Text: A test was arranged in a hothouse on a set of boxes having a 1,000 cm^2 internal surface. 18 Kg. of sieved rice field earth were put into each box. After leveling, the earth surfaces of each of a set of six boxes were uniformly sprayed with hydroacetone solutions containing, respectively, 0, 0.5, 0.75, 1, 1.25, and 1.5% of M3432. 20 Cc. of solution was sprayed into each box, corresponding to 0, 10, 15, 20, 25, and 30 kg./ha., respectively. Each box was flooded with a 10 cm. water layer measured from the earth surface. The sowing was carried out immediately afterwards with a pre-germinated (cv) RIBE rice seed, employing a quantity of 40 seeds per box.
A second test was carried out in a hothouse, employing the identical method and under the identical conditions as in Example 9a.

[2] = Acute oral toxicity, rats; conditions: rat, in vivo, per os
Barnyard grass = assay: Rice seed treatment, 5000 square meter field plots, test No. 3, barnyard grass (Example 17); type: in vivo; conditions: 67 days; for Barnyard grass tiller number: single 1 m^2 testing area
Description: (§1) A further test was carried out outdoors on loam soil on plots of about 5000 square meters surface.
(§2) After flooding each plot, seeds treated as in Test No. […] In all cases, the seen quantity was 150 kg./ha. 67 days after sowing, the results were gathered on 5 representative testing areas of 1 square meter each for each dosage level.

Echinocloa spp. = assay: Post emergence hothouse test No. 1 (Example 16); type: in vivo; conditions: 4, 6, and 8 kg./ha., 3 days; plants 3-4 cm. at treatment
Description: A set of boxes having a 1,000 cm^2 internal surface was prepared in a hothouse according to the method described in Example 9. The boxes were sowed with Echinocloa spp. (70 seeds per box). After saturation of the soil, and as soon as the infesting plants emerged from the soil, the boxes were flooded with a 7 cm. layer of water. When the plants reached a maximum height of 3-4 cm., the treatment was effected by spraying the flooding water surfaces with hydroacetone solutions according to the modalities employed in Example 9. 3 days after the treatment, the following results were observed: […]

[3] = Solubility and volatility; type: physicochemical
rice [4] = assay: Rice seed treatment, 5000 square meter field plots, test No. 3, rice (Example 17); type: in vivo; conditions: 67 days; for Rice tiller dry weight / Rice tiller number: single 1 m^2 testing area
Description: as §1, §2

rice [5] = assay: Further test on rice in submerged culture at high doses (Example 8); type: in vivo; conditions: 33 days
Description: Into a set of cylindrical pots having a 200 cm^2 internal surface, sieved rice field earth in a quantity of 1 kg. per pot was introduced. After leveling and wetting with 200 cc. of water, the earth surface of the pots was uniformly sprayed with hydroacetone solutions containing, respectively, 0, 0.2, 0.3, and 0.4% active product (a.p.). 4 Ml. of the solution were sprayed onto each pot, so that the amount of active product in a set of four pots was 0, 4, 6, and 8 kg./ha., respectively. Immediately after spraying, each pot was filled with water to a level of 7 cm. over the soil surface. Thereafter, the sowing was carried out at the rate of 15 pre-germinated rice seeds per pot. Three repetitions were performed for each treatment. The pots were kept in an air-conditioned atmosphere with a daily temperature variation between 10° and 25°C and a 14 hour per day light period. After 24 days, the percentage of sprouted plants and the length of the shoot were recorded.
In view of the foregoing results, a further test was conducted according to the methodology of Example 7. During such test, M3432 was employed in quantities of 10, 20, and 30 kg./ha. The results were gathered 33 days after the treatments.

rice [6] = assay: Rice seed surface treatment, pots, test No. 1 (Example 17); type: in vivo, rice cv. RIBE; conditions: 41 days
Description: A set of glass pots was prepared as described in Example 7. Immediately after such preparation the pots were filled with water to a level of 7 cm. above the ground surface. Cv. RIBE rice seeds, which were previously allowed to swell in water, were divided into four groups. Each group was treated, by application with a micro syringe with a quantity of M3432 composition; containing 70% active product, corresponding to the following doses of a.p. per ha.: 0, 2.5, 5, and 10 kg. 15 seeds coated with the compound were placed into each pot and subsequently covered with a thin layer of earth. After 41 days, the following results were obtained.

[7] = Acute oral toxicity, mice; conditions: mouse, in vivo

CCC(C)N(C(=O)SCc1ccccc1)C(C)CC (stereo not shown) [M3432, S-benzyl-N,N-disec.butylthiocarbamate]
Main root (rice [1]; 10 kg./ha.): 12.64 cm. | Roots, weight on dry basis (rice [1]; 10 kg./ha.): 5.550 g. per 100 plant | Secondary roots (rice [1]; 10 kg./ha.): 12.20 No. | Shoot (rice [1]; 10 kg./ha.): 16.74 cm. | Shoot, weight on dry basis (rice [1]; 10 kg./ha.): 8.000 g. per 100 plant | Sprouted plants (rice [1]; 10 kg./ha.): 45.0% | Main root (rice [1]; 15 kg./ha.): 13.54 cm. | Roots, weight on dry basis (rice [1]; 15 kg./ha.): 6.800 g. per 100 plant | Secondary roots (rice [1]; 15 kg./ha.): 13.30 No. | Shoot (rice [1]; 15 kg./ha.): 18.16 cm. | Shoot, weight on dry basis (rice [1]; 15 kg./ha.): 11.800 g. per 100 plant | Sprouted plants (rice [1]; 15 kg./ha.): 45.0% | Main root (rice [1]; 20 kg./ha.): 17.16 cm. | Roots, weight on dry basis (rice [1]; 20 kg./ha.): 10.480 g. per 100 plant | Secondary roots (rice [1]; 20 kg./ha.): 21.00 No. | Shoot (rice [1]; 20 kg./ha.): 26.00 cm. | Shoot, weight on dry basis (rice [1]; 20 kg./ha.): 18.050 g. per 100 plant | Sprouted plants (rice [1]; 20 kg./ha.): 60.0% | Main root (rice [1]; 25 kg./ha.): 10.26 cm. | Roots, weight on dry basis (rice [1]; 25 kg./ha.): 4.250 g. per 100 plant | Secondary roots (rice [1]; 25 kg./ha.): 10.05 No. | Shoot (rice [1]; 25 kg./ha.): 15.00 cm. | Shoot, weight on dry basis (rice [1]; 25 kg./ha.): 6.875 g. per 100 plant | Sprouted plants (rice [1]; 25 kg./ha.): 40.0% | Main root (rice [1]; 30 kg./ha.): 8.21 cm. | Roots, weight on dry basis (rice [1]; 30 kg./ha.): 2.800 g. per 100 plant | Secondary roots (rice [1]; 30 kg./ha.): 8.00 No. | Shoot (rice [1]; 30 kg./ha.): 14.50 cm. | Shoot, weight on dry basis (rice [1]; 30 kg./ha.): 5.050 g. per 100 plant | Sprouted plants (rice [1]; 30 kg./ha.): 40.0% | LD50 [2]: 10200 mg/kg | Barnyard grass tiller number (Barnyard grass; 3.4 kg./ha.): 0 (no.)/m^2 | Barnyard grass tiller number, average on 5 testing areas (Barnyard grass; 3.6 kg./ha.): 0 (no.)/m^2 | Barnyard grass tiller number, average on 5 testing areas (Barnyard grass; 4.0 kg./ha.): 0 (no.)/m^2 | Barnyard grass tiller number (Barnyard grass; 4.0 kg./ha.): 0 (no.)/m^2 | Shoot (Echinocloa spp.): 0 cm. | Stand (Echinocloa spp.): 0% | Volatility [3]: not volatile | Solubility in organic solvents ([3]; benzene, ether, heptane, methanol, cyclohexanone, acetone, methyl chloride, dichloroethane): soluble | Solubility in water ([3]; water): practically insoluble | Rice tiller dry weight (rice [4]; 3.4 kg./ha.): 254.50 (g.)/m^2 and 331.10 (g.)/m^2 and 301.08 (g.)/m^2 and 373.50 (g.)/m^2 and 332.00 (g.)/m^2 | Rice tiller number (rice [4]; 3.4 kg./ha.): 432 (no.)/m^2 and 430 (no.)/m^2 and 421 (no.)/m^2 and 417 (no.)/m^2 and 392 (no.)/m^2 | Rice tiller dry weight, average on 5 testing areas (rice [4]; 3.6 kg./ha.): 318.44 (g.)/m^2 | Rice tiller number, average on 5 testing areas (rice [4]; 3.6 kg./ha.): 418.4 (no.)/m^2 | Rice tiller dry weight, average on 5 testing areas (rice [4]; 4.0 kg./ha.): 438.01 (g.)/m^2 | Rice tiller number, average on 5 testing areas (rice [4]; 4.0 kg./ha.): 559.0 (no.)/m^2 | Rice tiller dry weight (rice [4]; 4.0 kg./ha.): 473.98 (g.)/m^2 and 316.91 (g.)/m^2 and 484.50 (g.)/m^2 and 423.55 (g.)/m^2 and 491.10 (g.)/m^2 | Rice tiller number (rice [4]; 4.0 kg./ha.): 599 (no.)/m^2 and 440 (no.)/m^2 and 687 (no.)/m^2 and 523 (no.)/m^2 and 546 (no.)/m^2 | Main root (rice [5]; 10 kg./ha.): 11.3 cm. | Secondary roots (rice [5]; 10 kg./ha.): 4.4 number per plant | Shoot (rice [5]; 10 kg./ha.): 19.97 cm. | Sprouted plants (rice [5]; 10 kg./ha.): 71.1% | Main root (rice [5]; 20 kg./ha.): 10.6 cm. | Secondary roots (rice [5]; 20 kg./ha.): 5.1 number per plant | Shoot (rice [5]; 20 kg./ha.): 20.9 cm. | Sprouted plants (rice [5]; 20 kg./ha.): 77.7% | Main root (rice [5]; 30 kg./ha.): 11.1 cm. | Secondary roots (rice [5]; 30 kg./ha.): 5.4 number per plant | Shoot (rice [5]; 30 kg./ha.): 23.4 cm. | Sprouted plants (rice [5]; 30 kg./ha.): 80.0% | Main root (rice [6]; 2.5 kg./ha.): 8.93 cm. | Secondary roots (rice [6]; 2.5 kg./ha.): 3.90 no. | Shoot (rice [6]; 2.5 kg./ha.): 17.16 cm. | Stand (rice [6]; 2.5 kg./ha.): 68.80% | Main root (rice [6]; 5 kg./ha.): 8.48 cm. | Secondary roots (rice [6]; 5 kg./ha.): 4.02 no. | Shoot (rice [6]; 5 kg./ha.): 16.83 cm. | Stand (rice [6]; 5 kg./ha.): 62.20% | Main root (rice [6]; 10 kg./ha.): 10.07 cm. | Secondary roots (rice [6]; 10 kg./ha.): 4.23 no. | Shoot (rice [6]; 10 kg./ha.): 16.92 cm. | Stand (rice [6]; 10 kg./ha.): 62.20% | LD50 [7]: 8000 mg/kg

From US3930838A, “S-benzyl-N,N-disec-butylthiocarbamate and its use as a rice field herbicide and a rice growth stimulant” (priority 1970, dated 1976)
